Experimental data from article PMC5539802 (2014).

What was measured:
[1] = tested on: PS2.M (DNA, G4) GTGGGTAGGGCGGGTTGG; assay: luminescence enhancement; conditions: 100 mM K+ (annealing); 1 μM complex, 5 μM DNA; 20 mM Tris-HCl pH 7.0
[2] = tested on: F10T (DNA, hairpin, hexaethylene glycol (HEG) linker between nucleotides 8 and 9) TATAGCTATATAGCTATAT; assay: FRET melting; conditions: 10 mM Li+; lithium cacodylate pH 7.4; same complex concentration as F21T
[3] = tested on: F21T (DNA, G4) GGGTTAGGGTTAGGGTTAGGG; assay: FRET melting; conditions: 100 mM K+; potassium cacodylate pH 7.0; 200 nM DNA; complex concentration not in material
[4] = tested on: ON1 (DNA, G4) GTGGGTAGGGCGGGTTGGTGGCGACGGCAGCGAGGCAGAGGAGCAGAGGGAGCA; assay: luminescence enhancement; conditions: 20 mM K+, 150 mM NH4+; 20 mM Tris pH 7.2; 1 μM complex; G-quadruplex released by helicase unwinding of ON1-ON2
[5] = tested on: ds17 (DNA, duplex) CCAGTTCGTAGTAACCC/GGGTTACTACGAACTGG; assay: G4-FID thiazole orange displacement; conditions: Tris-HCl buffer; thiazole orange 0.5 μM displaced; less effective than for Pu27
[6] = tested on: ON1-ON2 duplex substrate (DNA, duplex) GTGGGTAGGGCGGGTTGGTGGCGACGGCAGCGAGGCAGAGGAGCAGAGGGAGCA/GCCTCGCTGCCGTCGCCACCAACCCGCCC; assay: luminescence enhancement; conditions: 20 mM K+, 150 mM NH4+; 20 mM Tris pH 7.2; 1 μM complex; duplex without helicase unwinding

binding [1] | ΔTm [2] [°C] | ΔTm [3] | binding [4] | binding [5] | binding [6] | SMILES
yes | – | – | – | – | – | Clc1cc2cccnc2c2ncccc12.[Ir+3].[c-]1ccccc1-c1ccc2ccccc2n1.[c-]1ccccc1-c1ccc2ccccc2n1
yes | 4 | ~ 13 °C | yes | weak | weak | [Ir+3].[c-]1ccccc1-c1ccc2ccccc2n1.[c-]1ccccc1-c1ccc2ccccc2n1.c1cnc2c(c1)ccc1cccnc12
